According to patent publication US4514330A, “Carbon-7-substituted atinomycin D analogue” (Trustees of Boston University, priority 1983, dated 1985):
Values after ≈ are worked out from the molar mass of the structure shown. Like-named read-outs stand apart in the source and are kept apart here. Starred links: 1 amine or outer side, 2 acyl side, 3 side chain; linkers in the order of their positions; H or OH if unused. Positions of bridges follow the written chain, without caps; N, C: chain ends. Non-standard residues stand in square brackets, D forms with d. Residues, ends and D or L forms follow the SMILES beside them. Chains are numbered I, II in the order given. Actinocin(9to1) = Cc1c2oc3c(C)ccc(C(=O)[*:1])c3nc-2c(C(=O)[*:2])c(N)c1=O; NMeV = CN[C@H](C(=O)O)C(C)C; Sar = CNCC(=O)O

How the values were obtained:
DNA [1] = conditions: known analogues; cited from earlier work
[2] = system: spleen, liver, kidney, large and small intestine, heart, lung, pancreas and adrenals; experiment: Gross pathology of organ sections at LD10 (MTD) dose levels, day 14; type: in vivo, CDF1 mice
Experimental: In an additional experiment, two animals at LD10 (or MTD) dose levels were sacrificed on day 14, and the organ sections from these animals were evaluated for gross pathology in the following way. Organs, e.g., spleen, liver, kidney, large and small intestine, heart, lung, pancreas and adrenals, were removed and fixed in 10% […] buffer formalin. They were kept immersed for 2 weeks; tissues were dehydrated through graded alcohols (70, 90, 95 and 100%), cleared in cedarwood oil and embedded in paraffin. Sections were cut in 7 μm and mounted with gelatin on microscope slides. After drying, sections were stained with Mayer's hematoxylin and eosin and examined with light microscopy.

[3] = system: Wilm's tumor, gestational choriocarcinoma, and Kaposi's sarcoma; conditions: cited from earlier work
[4] = system: human lymphoblastic leukemic cells (CCRF-CEM); experiment: In vitro growth-inhibitory activity against human lymphoblastic leukemic cells (CCRF-CEM) in log phase; type: cell-based; conditions: Homo sapiens, final growth medium contained 1% Me2SO, log phase, read-out: ID50 (in vitro growth inhibition, CCRF-CEM)
Experimental: ^b Using human lymohoblastic leukemia cells in logplastic growth.
Compounds were dissolved in Me2 So medium, final growth medium

DNA [5] = experiment: Thermal denaturation of DNA (ΔTm), stabilization of DNA helical structure on drug binding; set-up: species or system calf thymus
Experimental: Thermal denaturation studies were carried out according to the procedure described in J. Med. Chem., Vol. 24, p. 1052 (1981). The ΔTm values in Table II give a measure of stabilization of DNA helical structure as a consequence of drug binding.
^a ΔTm = m of DNAdrug complex minus m of DNA.
Concentraiton of drug, 1.4 × 10^-4 M; of DNA (P), 1.4 ×
10^-3 M in 0.01 M phosphate buffer (pH 7.0), 5 × 10^-3 M in
EDTA and 5% dimethyl sulfoxide.
^d Highest dose tested. These values are derived at high temperatur
(67°-75° C.) and may not always correlate with the results
of other DNA-binding studies (e.g., absorptiometric or circular dichroic).
Melting points were obtained with a Thomas-Hoover melting point apparatus at a heating rate of 2° C./min. Column chromatography was accomplished with silica gel powder (Baker No. 3405, 60-20 mesh) or acid alumina (Woelm grade 1). Limited gel-filtration work was done on Sephadex LH-20, particle size 25-100 μm (Pharmacia Fine Chemicals). Thin-layer chromatography was performed on silica gel plates (E. M. Laboratories, Inc.). Solvent systems used were (A) butanol-formic acid-H2 O (75:13:12), (B) EtOAc-acetone (3:1), and (C) Cifferri, the organic phase of the mixture EtOAc-MeOH-H2 O (20:1:20). High-performance liquid chromatography was carried out on a Varian Model 5020 gradient liquid chromatograph equipped with CD-111L chromatography data system and fitted with Varian reversed-phase C18 column with isocratic solvent systems, CH3 -CN-5 mM NH4 OAc buffer, pH 6.4 (68:32 or 62:38), pressure 80-140 atm, flow rate 1.5 mL/min, with UV-visible variable and fixed wavelength dual detectors at 254 and 466 nm. Spectra were determined on the following instruments: IR spectra were obtained with a Perkin-Elmer Model 237 Infra Cord with KBr micropellets or chloroform solutions; UV-visible spectra were obtained on a Gilford 250 spectrophotometer, which, with the addition of a base-line reference compensator (Analog Multiplexer 6064) and thermoprogrammer, auto four cell programmer and thermoelectric cell holder 2577, was used to obtain thermal denaturation curves; NMR spectra were obtained on a JOEL FQ-90-90MHZ spectrometer equipped with Fourier transform; and CD spectra were obtained on a Cary 61 spectrophotometer. All elemental analyses were within ±0.4% of the theoretical values. Actinomycin D, batch no. NCS 3053, lot L554651-0-10, was provided by Natural Products Branch, National Cancer Institute, Silver Spring, Md. Calf thymus DNA type 1 was purchased from Sigma Chemical Co.

[6] = cited from earlier work
proliferating cells = conditions: cited from earlier work
P-388 leukemia = experiment: In vivo antitumor activity against P-388 lymphocytic leukemia in CDF1 mice; conditions: for % ILS (percent increase in life span) / MST (median survival time) / cure (over 55 day survivors): days 1, 5, 9; for minimal effective dose: Mus musculus, P388, ip, read-out: MED (minimum effective dose, 40% increase in life span over control)
Experimental: Studies on in vivo activity of AMD and AMD analogues were carried out with P-388 lymphocytic leukemia in CDF1 hybrid mice. The drugs were administered either daily for 4 successive days (qd 1-4) or on days 1, 5 and 9 (q4d 1, 5, 9) beginning 1 day after tumor implantation.
^a Male CDF1 (18-23 g) mice were inoculated intraperitoneally
(ip) with 10^6 P388 cells on day 0. Drugs were administered, also ip,
in 10% dimethyl sulfoxidesaline on days 1, 5 and 9. Test solutions were
kept at 0-4° C., protected from light, and the stability and
homogeneity were checked periodically by TLC and HPLC.
^b MST = median survival time.
^c % ILS = percent increase in life span.
^d Over 55 day survivors. Average of three experiments. The
^a Drugs administed ip once daily either for 4 successive days (qd
1-4) or on days 1, 5 and 9 (q4d 1, 5 9), starting 1 day after tumor
^b MED (minimum effective dose) is the dose (milligrams/kilogram)
providing an increase in life span of 40% over control in P388

[7] = system: DNA-dependent RNA synthesis; conditions: submicromolar concentrations; cited from earlier work
patients = conditions: attributed to lack of metabolism / excretion; listed as AMD; cited from earlier work
normal CDF1 male mice = experiment: Maximum tolerated dose (LD10) in normal, tumor-free CDF1 male mice; type: in vivo; conditions: deaths during 21 days
Experimental: ^c MTD (maximum tolerated dose) is the lethal dose
(milligrams/kilogram) for 10% normal CDF1 male mice (18-23 g);
were calculated from a plot of log dose vs. percent mortality. Average of
two to three experiments.
Biological Experiments. Determination of LD10 Values. Tumor-free CDF1 male mice weighing 18-23 g were given a broad range of doses of drugs in 10% dimethyl sulfoxide-saline on either days 1, 5 and 9 or on 4 successive days. Drugs were administered intraperitoneally (ip).
The maximum tolerated doses of AMD and analogues that caused deaths in only 10% of the tested animals in 21 days were recorded as MTD. The results are an average of two experiments in each. The MTD values obtained following schedules q4d 1, 5, 9 (three injections) and qd 1-4 (four injections) are recorded in Table IV. These doses are the same as LD10 (lethal dose of 10% of tumor-free animals in 21 days).

[8] = three injections ip, q4d 1, 5, 9

Compound: Cc1c2oc3c(C)ccc(C(=O)N[C@@H]4C(=O)N[C@H](C(C)C)C(=O)N5CCC[C@H]5C(=O)N(C)CC(=O)N(C)[C@@H](C(C)C)C(=O)O[C@@H]4C)c3nc-2c(C(=O)N[C@@H]2C(=O)N[C@H](C(C)C)C(=O)N3CCC[C@H]3C(=O)N(C)CC(=O)N(C)[C@@H](C(C)C)C(=O)O[C@@H]2C)c(N)c1=O [Compound 1b, Actinomycin D, reference compound] (I: T[dV]P[Sar][NMeV] / II: T[dV]P[Sar][NMeV]; ester I:1-I:C, II:1-II:C; linker I:N-II:N via Actinocin(9to1))
- mode of DNA binding, same way as AMD (DNA [1]): by intercalation of the chromophore and concomitant hydrogen and hydrophobic interactions of the peptide lactones
- pathology of spleen sections [2]: haematopoiesis indicative of bone-marrow toxicity
- activity in several tumors [3]: potent activity
- IC50 [4]: 0.06 µg/mL (≈ 0.0478 µM)
- Tm (ΔTm = Tm of DNA-drug complex minus Tm of DNA) (DNA [5]; drug 1.4 × 10^-4 M, DNA (P) 1.4 × 10^-3 M, 0.01 M phosphate buffer pH 7.0, EDTA, 5% dimethyl sulfoxide): 7.1 ± 0.15 °C
- DNA melting profile / ΔTm character of the DNA complex (DNA [5]; thermal denaturation, words): sharp and smooth
- in vivo metabolism [6]: not metabolized in vivo
- cytotoxicity in proliferating cells versus nonproliferating (liver, kidney, muscle) (proliferating cells): far more cytotoxic in those proliferating cells
- % ILS (percent increase in life span) (P-388 leukemia; 0.031 mg/kg ip): 18%
- MST (median survival time) (P-388 leukemia; 0.031 mg/kg ip): 13 days
- cure (over 55 day survivors) (P-388 leukemia; 0.031 mg/kg ip): 0/7
- % ILS (percent increase in life span) (P-388 leukemia; 0.062 mg/kg ip): 45%
- MST (median survival time) (P-388 leukemia; 0.062 mg/kg ip): 16 days
- cure (over 55 day survivors) (P-388 leukemia; 0.062 mg/kg ip): 1/7
- % ILS (percent increase in life span) (P-388 leukemia; 0.125 mg/kg ip): 136%
- MST (median survival time) (P-388 leukemia; 0.125 mg/kg ip): 26 days
- cure (over 55 day survivors) (P-388 leukemia; 0.125 mg/kg ip): 0/7
- % ILS (percent increase in life span) (P-388 leukemia; 0.250 mg/kg ip): 55%
- MST (median survival time) (P-388 leukemia; 0.250 mg/kg ip): 17 days
- cure (over 55 day survivors) (P-388 leukemia; 0.250 mg/kg ip): 0/7
- MST (median survival time) (P-388 leukemia; 0.375 mg/kg ip): 9 days
- minimal effective dose (P-388 leukemia; four injections ip, qd 1-4): 0.05 mg/kg
- minimal effective dose (P-388 leukemia; [8]): 0.0625 mg/kg
- therapeutic index: MTD/MED (P-388 leukemia; four injections ip, qd 1-4): 3
- activity in respect of % ILS, 1b versus 2b (P-388 leukemia; ip, q4d 1, 5, 9): approximately equiactive
- breadth of dose-response curve (P-388 leukemia; ip, q4d 1, 5, 9): very narrow
- therapeutic index: MTD/MED (P-388 leukemia; [8]): 4
- inhibition of DNA-dependent RNA synthesis [7]: strongly inhibits
- toxicity (patients): acute and cumulative toxicity
- MTD (maximum tolerated dose, lethal for 10% of normal mice; = LD10) (normal CDF1 male mice; four injections ip, qd 1-4): 0.15 milligrams/kilogram
- MTD (maximum tolerated dose, lethal for 10% of normal mice; = LD10) (normal CDF1 male mice; [8]): 0.25 milligrams/kilogram
